Data from patent publication US10259810B2, “N-sulfonylated pyrazolo[3,4-b]pyridin-6-carboxamides and method of use” (AbbVie S.à.r.l., priority 2015, dated 2019).
pEC50: −log10 of the molar value. Read-outs that look alike come from different tables or passages of the source.

Experiments:
Format in all cases: cell-based
[1] = target: T1, ΔF508-CFTR (Homo sapiens, UniProt P13569, DEL508-508); experiment: CFTR cell surface levels using HRP-tagged ΔF508-CFTR expressing CFBE cells, intrinsic corrector capacity; parameters: % Activation: concentration or dose not given beside the values; conditions: HRP-tagged ΔF508-CFTR expressing CFBE41o- cells, compound alone (intrinsic corrector capacity), 20 hours at 33° C.; for pEC50: read-out: EC50
T1 construct: host or cells: CFBE41o-, doxycycline-inducible
T1 sequence (P13569 with tags, fused parts or gaps DEL508-508): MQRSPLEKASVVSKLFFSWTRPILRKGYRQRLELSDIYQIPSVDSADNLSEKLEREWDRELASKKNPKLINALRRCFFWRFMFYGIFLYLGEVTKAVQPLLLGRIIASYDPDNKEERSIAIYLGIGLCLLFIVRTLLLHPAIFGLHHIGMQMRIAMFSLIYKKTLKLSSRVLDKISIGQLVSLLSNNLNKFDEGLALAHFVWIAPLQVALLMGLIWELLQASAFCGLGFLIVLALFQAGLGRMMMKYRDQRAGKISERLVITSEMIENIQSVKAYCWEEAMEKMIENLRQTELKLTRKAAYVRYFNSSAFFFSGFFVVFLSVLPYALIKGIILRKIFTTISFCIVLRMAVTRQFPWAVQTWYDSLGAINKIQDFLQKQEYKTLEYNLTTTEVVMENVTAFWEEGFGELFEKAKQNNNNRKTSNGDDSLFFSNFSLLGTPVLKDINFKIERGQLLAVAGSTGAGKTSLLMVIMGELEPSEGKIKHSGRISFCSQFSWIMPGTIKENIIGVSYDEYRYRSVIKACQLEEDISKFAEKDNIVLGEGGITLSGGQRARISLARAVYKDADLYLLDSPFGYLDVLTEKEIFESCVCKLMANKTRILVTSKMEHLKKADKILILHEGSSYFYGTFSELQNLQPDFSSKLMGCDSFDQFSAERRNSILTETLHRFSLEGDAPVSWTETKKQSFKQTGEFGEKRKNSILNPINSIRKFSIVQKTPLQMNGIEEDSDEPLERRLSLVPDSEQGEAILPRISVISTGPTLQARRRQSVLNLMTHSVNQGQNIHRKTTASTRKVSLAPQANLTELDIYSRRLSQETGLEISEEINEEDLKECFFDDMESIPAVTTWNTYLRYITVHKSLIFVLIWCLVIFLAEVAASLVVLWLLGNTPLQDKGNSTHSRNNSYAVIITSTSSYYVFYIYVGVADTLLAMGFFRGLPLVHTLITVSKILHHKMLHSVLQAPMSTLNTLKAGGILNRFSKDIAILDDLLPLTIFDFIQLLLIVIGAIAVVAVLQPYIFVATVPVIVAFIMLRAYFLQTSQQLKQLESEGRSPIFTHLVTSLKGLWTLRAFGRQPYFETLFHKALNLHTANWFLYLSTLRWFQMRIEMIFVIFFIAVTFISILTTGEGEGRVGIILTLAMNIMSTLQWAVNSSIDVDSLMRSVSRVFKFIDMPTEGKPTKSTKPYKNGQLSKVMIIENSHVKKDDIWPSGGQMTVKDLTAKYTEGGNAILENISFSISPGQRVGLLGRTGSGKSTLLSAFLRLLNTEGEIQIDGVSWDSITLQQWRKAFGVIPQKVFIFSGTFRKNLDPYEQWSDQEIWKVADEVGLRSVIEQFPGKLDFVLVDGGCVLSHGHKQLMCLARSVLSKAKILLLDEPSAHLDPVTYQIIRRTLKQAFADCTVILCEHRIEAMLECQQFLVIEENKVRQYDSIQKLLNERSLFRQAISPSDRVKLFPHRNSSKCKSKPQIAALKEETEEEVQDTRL
Summary of the method: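 Read-out: chemiluminescent HRP activity of ECL4-HRP-tagged ΔF508-CFTR at the cell surface, 15 min substrate in dark. Normalized as 100×(sample−DMSO)/(positive control−DMSO).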

[2] = target: T1, ΔF508-CFTR; experiment: CFTR cell surface levels using HRP-tagged ΔF508-CFTR expressing CFBE cells, in the presence of a co-corrector; conditions: HRP-tagged ΔF508-CFTR CFBE cells, in the presence of 3 μM co-corrector; for pEC50: read-out: EC50
Summary of the method: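 Chemiluminescent read-out of surface HRP (15 min, dark) after PBS washes. Activity is normalized as 100×(sample−DMSO)/(3 μM co-corrector alone−DMSO).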

[3] = target: T2, CFTR ΔF508 (Homo sapiens, UniProt P13569, DEL508-508); experiment: Chronic TECC assay, primary bronchial epithelial cells of CF patients homozygous for CFTR ΔF508 (corrector, co-corrector and potentiator); conditions: chronic TECC; for % Activity at 1 μM (AUC**) / % Activity at 1 μM (Ieq*): test compound at 1 μM; for % Activity at 3 μM (AUC**): test compound at 3 μM
T2 construct: bronchial epithelial cells isolated from CF patients homozygous for the CFTR ΔF508 mutation; McGill University; Asterand; University of North Carolina hAEC-CF; host or cells: primary human bronchial epithelial cells from CF patients homozygous for ΔF508, differentiated at air-liquid interface
T2 sequence (P13569 with tags, fused parts or gaps DEL508-508): as above
Summary of the method: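 Primary bronchial epithelial cells from ΔF508-homozygous CF patients on collagen IV-coated Transwells were chronically treated with test compound plus corrector and potentiator, which were re-added before recording. Ieq was derived from PD and Rt in NaCl-Ringer, pH 7.4, at 37° C, with apical amiloride and bilateral forskolin, recorded every 2 min over 20 min. Ieq increase was normalized to controls, and EC50 was taken from per-well concentrations.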

[4] = AUC = full area under the curve upon forskolin stimulation, read-out: EC50 (nM) (AUC**)
[5] = AUC = full area under the curve upon forskolin stimulation
[6] = Ieq = calculations based on the maximum current, read-out: EC50 (nM) (Ieq*)
[7] = Ieq = calculations based on the maximum current

| Compound | % Activation [1] | pEC50 [1] | % Activation [2] | pEC50 [2] | EC50 [3, 4] | % Activity at 1 μM (AUC**) [3, 5] | % Activity at 3 μM (AUC**) [3, 5] | EC50 [3, 6] | % Activity at 1 μM (Ieq*) [3, 7] |
| --- | --- | --- | --- | --- | --- | --- | --- | --- | --- |
| CS(=O)(=O)NC(=O)c1cc(N2CCC(OCC3CC3)CC2)c2c(C3CCC3)nn(-c3ccccc3)c2n1 [Compound 230, 3-cyclobutyl-4-[4-(cyclopropylmethoxy)piperidin-1-yl]-N-(methanesulfonyl)-1-phenyl-1H-pyrazolo[3,4-b]pyridine-6-carboxamide] | 243.75% | 6.39 | 440.1% | 6.74 | 27 nM | 265.44% | – | – | – |
| CS(=O)(=O)NC(=O)c1cc(OCCN2CCS(=O)(=O)CC2)c2c(C3CCC3)nn(-c3ccccc3)c2n1 [Compound 243, 3-cyclobutyl-4-[2-(1,1-dioxo-1λ^6,4-thiazinan-4-yl)ethoxy]-N-(methanesulfonyl)-1-phenyl-1H-pyrazolo[3,4-b]pyridine-6-carboxamide] | 78.11% | 5.48 | 204.1% | 5.48 | – | 165.81% | – | – | – |
| CC(C)Oc1nccc(-n2nc(C3CCC3)c3c(N4CCC(N5CCOCC5)CC4)cc(C(=O)NS(=O)(=O)N(C)C)nc32)n1 [Compound 621, 3-cyclobutyl-N-(dimethylsulfamoyl)-4-[4-(morpholin-4-yl)piperidin-1-yl]-1-{2-[(propan-2-yl)oxy]pyrimidin-4-yl}-1H-pyrazolo[3,4-b]pyridine-6-carboxamide] | 160.45% | 6.76 | 348.55% | 7.11 | – | – | 256.6667% | – | – |
| CN(C)S(=O)(=O)NC(=O)c1cc(N2CCC(N3CCCC(C#N)C3)CC2)c2c(C3CCC3)nn(-c3ccc(F)cc3)c2n1 (stereo not shown) [Compound 562, 4-(3-cyano[1,4'-bipiperidin]-1'-yl)-3-cyclobutyl-N-(dimethylsulfamoyl)-1-(4-fluorophenyl)-1H-pyrazolo[3,4-b]pyridine-6-carboxamide] | 341.3% | 7.15 | 589.55% | 7.11 | – | 289.8854% | – | – | – |
| COCC1CCN(c2cc(C(=O)NS(C)(=O)=O)nc3c2c(C2CCC2)nn3-c2ccnc(OC)c2)CC1 [Compound 385, 3-cyclobutyl-N-(methanesulfonyl)-4-[4-(methoxymethyl)piperidin-1-yl]-1-(2-methoxypyridin-4-yl)-1H-pyrazolo[3,4-b]pyridine-6-carboxamide] | 227.5% | 6.92 | 393.53% | 7.19 | 12.3 nM | – | – | – | – |
| CC1CN(c2ccc(-c3cc(C(=O)NS(C)(=O)=O)nc4c3c(C(C)C)nn4C3CCCCC3)cn2)CC(C)O1 (stereo not shown) [Compound 93, 1-cyclohexyl-4-[6-(2,6-dimethylmorpholin-4-yl)pyridin-3-yl]-N-(methanesulfonyl)-3-(propan-2-yl)-1H-pyrazolo[3,4-b]pyridine-6-carboxamide] | 224.23% | 6.30 | 456.5% | 6.57 | – | – | – | < 30 nM | 220% |
| COCCS(=O)(=O)NC(=O)c1cc(N2CCC(OC)CC2)c2c(C3CCC3)nn(-c3ccccc3)c2n1 [Compound 146, 3-cyclobutyl-N-(2-methoxyethanesulfonyl)-4-(4-methoxypiperidin-1-yl)-1-phenyl-1H-pyrazolo[3,4-b]pyridine-6-carboxamide] | 201.23% | 6.45 | 357.55% | 7.01 | – | – | – | 30 nM | 310% |
| CN(C)S(=O)(=O)NC(=O)c1cc(N2CCC3(CC2)CCN(C2COC2)CC3)c2c(C3CCC3)nn(-c3ccc(F)cc3)c2n1 [Compound 614, 3-cyclobutyl-N-(dimethylsulfamoyl)-1-(4-fluorophenyl)-4-[9-(oxetan-3-yl)-3,9-diazaspiro[5.5]undecan-3-yl]-1H-pyrazolo[3,4-b]pyridine-6-carboxamide] | 172% | 6.68 | 381.35% | 6.77 | – | – | 407.7118% | – | – |
| CS(=O)(=O)NC(=O)c1cc(N2CCC(S(C)(=O)=O)CC2)c2c(C3CCC3)nn(-c3ccccc3)c2n1 [Compound 190, 3-cyclobutyl-N-(methanesulfonyl)-4-[4-(methanesulfonyl)piperidin-1-yl]-1-phenyl-1H-pyrazolo[3,4-b]pyridine-6-carboxamide] | 284.8% | 6.01 | 502.4% | 5.91 | 51 nM | 269% | – | – | – |
| COC1CCN(c2cc(C(=O)NS(C)(=O)=O)nc3c2c(C(C)C)nn3-c2ccc(F)cc2)CC1 [Compound 167, 1-(4-fluorophenyl)-N-(methanesulfonyl)-4-(4-methoxypiperidin-1-yl)-3-(propan-2-yl)-1H-pyrazolo[3,4-b]pyridine-6-carboxamide] | 260.6% | 6.50 | 429.4% | 7.09 | 32 nM | 260% | – | – | – |
| CN(C)S(=O)(=O)NC(=O)c1cc(C2CCN(C3CCC(F)(F)CC3)CC2)c2c(C3CCC3)nn(-c3ccc(F)cc3)c2n1 [Compound 594, 3-cyclobutyl-4-[1-(4,4-difluorocyclohexyl)piperidin-4-yl]-N-(dimethylsulfamoyl)-1-(4-fluorophenyl)-1H-pyrazolo[3,4-b]pyridine-6-carboxamide] | 135.7% | 6.28 | 308.05% | 6.74 | – | – | 320% | – | – |
| COCC1CCN(c2cc(C(=O)NS(C)(=O)=O)nc3c2c(C(C)C)nn3-c2ccnc(N3CCOCC3)n2)CC1 [Compound 279, N-(methanesulfonyl)-4-[4-(methoxymethyl)piperidin-1-yl]-1-[2-(morpholin-4-yl)pyrimidin-4-yl]-3-(propan-2-yl)-1H-pyrazolo[3,4-b]pyridine-6-carboxamide] | 308.4% | 6.27 | 530.6% | 6.64 | 109 nM | – | – | – | – |
| CC(C)Oc1nn(C2CCCCC2)c2nc(C(=O)NS(C)(=O)=O)cc(-c3ccc(CN4CCN(C5CC5)CC4)cc3)c12 [Compound 597, 1-cyclohexyl-4-{4-[(4-cyclopropylpiperazin-1-yl)methyl]phenyl}-N-(methanesulfonyl)-3-[(propan-2-yl)oxy]-1H-pyrazolo[3,4-b]pyridine-6-carboxamide] | 214.3% | 6.89 | 433.93% | 6.96 | – | 263.3333% | – | – | – |
| COC1CCN(c2cc(C(=O)NS(=O)(=O)C3CCOCC3)nc3c2c(C2CCC2)nn3-c2ccccc2)CC1 [Compound 207, 3-cyclobutyl-4-(4-methoxypiperidin-1-yl)-N-(oxane-4-sulfonyl)-1-phenyl-1H-pyrazolo[3,4-b]pyridine-6-carboxamide] | 141.93% | 6.47 | 284.87% | 6.76 | – | 441.31% | – | – | – |
| COCC1CN(C2CCN(c3cc(C(=O)NS(=O)(=O)N(C)C)nc4c3c(C3CCC3)nn4-c3ccc(F)cc3)CC2)CCO1 (stereo not shown) [Compound 379, 3-cyclobutyl-N-(dimethylsulfamoyl)-1-(4-fluorophenyl)-4-{4-[2-(methoxymethyl)morpholin-4-yl]piperidin-1-yl}-1H-pyrazolo[3,4-b]pyridine-6-carboxamide] | 268.45% | 6.85 | 440.55% | 7.21 | 43 nM | – | – | – | – |
| CC(C)Oc1nn(C2CCCCC2)c2nc(C(=O)NS(C)(=O)=O)cc(-c3ccc(CN4CC(N(C)C)C4)cc3)c12 [Compound 633, 1-cyclohexyl-4-(4-{[3-(dimethylamino)azetidin-1-yl]methyl}phenyl)-N-(methanesulfonyl)-3-[(propan-2-yl)oxy]-1H-pyrazolo[3,4-b]pyridine-6-carboxamide] | 180.46% | 6.46 | 400.44% | 6.68 | 204 nM | – | – | – | – |
| COC1CCN(C2CCN(c3cc(C(=O)NS(N)(=O)=O)nc4c3c(C3CCC3)nn4-c3ccc(F)cc3)CC2)CC1 [Compound 630, 3-cyclobutyl-1-(4-fluorophenyl)-4-(4-methoxy[1,4'-bipiperidin]-1'-yl)-N-sulfamoyl-1H-pyrazolo[3,4-b]pyridine-6-carboxamide] | 339.64% | 6.13 | 593.42% | 6.43 | 47.1 nM | 125.1944% | – | – | – |
